Assays:
[1] = organism: Mus musculus; experiment: Inhibitory activity against murine leukemia; assay type: functional, organism-based
[2] = system: L1210; experiment: Inhibitory activity against L1210 growth using clonogenic assay; assay type: functional, cell-based; settings: Mus musculus
[3] = system: P388; experiment: Inhibitory activity against adriamycin-sensitive and resistant cells in P388 and P388-ADR cells; assay type: functional, cell-based; settings: Mus musculus

| Structure (SMILES) | IC50 [1] [nM] | IC50 [2] [nM] | IC50 [3] [nM] |
| --- | --- | --- | --- |
| CCCCCCCCCCCCCCCCOC[C@H](CCP(=O)([O-])OCC[N+](C)(C)C)OC | 1000 | 2500 | 2500 |
| CCCCCCCCCCCCCCCCSC[C@H](CCP(=O)([O-])OCC[N+](C)(C)C)OC | 1000 |  |  |

From ChEMBL document CHEMBL1127323, “Isosteric phosphonate analogs of ET-16-OMe. Synthesis and biological evaluation of the enantiomers of 2'-(trimethylammonio)ethyl 4-(hexadecyloxy)-3-methoxybutanephosphonate and 2'-(trimethylammonio)ethyl 4-(hexadecylthio)-3-methoxybutanephosphonate” (J Med Chem, 1994)
